According to ChEMBL document CHEMBL5725244, “IRE-1α inhibitors” (2016):

Experiment: Inhibition Assay: A fusion protein comprising glutathione S transferase (GST) and human IRE-1α (GST-IRE-1α) obtained from a 500 ml baculovirus-infected insect cell culture can be used to measure IRE-1α activity in vitro.Five ul of a reaction mixture comprising 1x reaction buffer (5x reaction buffer is 100 mM Hepes pH 7.5, 250 mM KOAc, 2.5 mM MgCl2), 3 mM DTT, and 0.4% polyethylene glycol water is added to each well of 384 well plates. Twenty-five nanoliters of a 1 mM test compound solution are added to test wells. Three ul of a 128 ng/ml IRE-1α preparation are added to each test well and to positive control wells (final concentration 5.82 ng/well). Negative control wells contain only reaction mixture and test compound.After spinning the plates at 1200 rpm for 30 seconds, 3 ul of an IRE-1α human mini-XBP-1 mRNA stem-loop substrate 5'-[…]-3' (SEQ ID NO:1), labeled with the fluorescent dye Cy5 at the 5' end and Black Hole Quencher 2 (BH2) at the 3' end, are added to each well of a control plate. The plates are again spun at 1200 rpm for 30 seconds. Final concentrations for the assay are: 63 nM IRE-1α substrate, 5.82 ng IRE-1α protein, and 2.5 uM test compound. The plates are covered with lids and incubated for one hour at 30° C. The plates are then transferred to an ACQUEST microplate reader. Data is analyzed using data analysis software, and the percent activity of IRE-1α is calculated.

For `CN(Cc1ccccc1)C1CCN(c2ccc3c(C=O)c(O)ccc3c2)C1` (configuration not stated), which IC50 is on record?
Its IC50 is > 1000 nM.

With `CN(Cc1ccccc1)C(=O)C1CCN(c2ccc3ccc(O)c(CO)c3c2)C1` (configuration not stated) as the compound, how does the IC50 read?
Its IC50 is > 1000 nM.

For `CN1CCN(C2CCN(c3ccc4ccc(O)c(CO)c4c3)C2)CC1` (configuration not stated), which IC50 is on record?
The IC50 was > 1000 nM.

With `OCc1c(O)ccc2ccc(N3CCCC3)cc12` as the compound, how does the IC50 read?
The IC50 was > 1000 nM.

With `CN1CCN(c2ccc3ccc(O)c(CO)c3c2)CC1` as the compound, how does the IC50 read?
The IC50 was > 1000 nM.

Which IC50 does the source give for `OCc1c(O)ccc2cc(N3CCOCC3)ccc12` here?
Its IC50 is > 1000 nM.

With `O=C(C1CCN(c2ccc3ccc(O)c(CO)c3c2)C1)N1CCCCC1` (configuration not stated) as the compound, how does the IC50 read?
Its IC50 is > 1000 nM.
